Assay results from ChEMBL document CHEMBL5465560, “Selectivity Literature for EUbOPEN Chemogenomic Library” (2024).

How the values were obtained:
[1] = molecular target: Mitogen-activated protein kinase 10 (Homo sapiens, UniProt P53779); settings: at 10 µM
Insulin receptor = Insulin receptor (Homo sapiens, UniProt P06213); test: Selectivity interaction (KinomeScan (DiscoverX)) EUB0000229b INSR; settings: at 10 µM
[2] = molecular target: T1, Ephrin type-A receptor 8 (Homo sapiens) (UniProt P29322); test: Selectivity interaction (KinomeScan (DiscoverX)) EUB0000092b EPHA8; settings: at 10 µM
T1 sequence (whole entry): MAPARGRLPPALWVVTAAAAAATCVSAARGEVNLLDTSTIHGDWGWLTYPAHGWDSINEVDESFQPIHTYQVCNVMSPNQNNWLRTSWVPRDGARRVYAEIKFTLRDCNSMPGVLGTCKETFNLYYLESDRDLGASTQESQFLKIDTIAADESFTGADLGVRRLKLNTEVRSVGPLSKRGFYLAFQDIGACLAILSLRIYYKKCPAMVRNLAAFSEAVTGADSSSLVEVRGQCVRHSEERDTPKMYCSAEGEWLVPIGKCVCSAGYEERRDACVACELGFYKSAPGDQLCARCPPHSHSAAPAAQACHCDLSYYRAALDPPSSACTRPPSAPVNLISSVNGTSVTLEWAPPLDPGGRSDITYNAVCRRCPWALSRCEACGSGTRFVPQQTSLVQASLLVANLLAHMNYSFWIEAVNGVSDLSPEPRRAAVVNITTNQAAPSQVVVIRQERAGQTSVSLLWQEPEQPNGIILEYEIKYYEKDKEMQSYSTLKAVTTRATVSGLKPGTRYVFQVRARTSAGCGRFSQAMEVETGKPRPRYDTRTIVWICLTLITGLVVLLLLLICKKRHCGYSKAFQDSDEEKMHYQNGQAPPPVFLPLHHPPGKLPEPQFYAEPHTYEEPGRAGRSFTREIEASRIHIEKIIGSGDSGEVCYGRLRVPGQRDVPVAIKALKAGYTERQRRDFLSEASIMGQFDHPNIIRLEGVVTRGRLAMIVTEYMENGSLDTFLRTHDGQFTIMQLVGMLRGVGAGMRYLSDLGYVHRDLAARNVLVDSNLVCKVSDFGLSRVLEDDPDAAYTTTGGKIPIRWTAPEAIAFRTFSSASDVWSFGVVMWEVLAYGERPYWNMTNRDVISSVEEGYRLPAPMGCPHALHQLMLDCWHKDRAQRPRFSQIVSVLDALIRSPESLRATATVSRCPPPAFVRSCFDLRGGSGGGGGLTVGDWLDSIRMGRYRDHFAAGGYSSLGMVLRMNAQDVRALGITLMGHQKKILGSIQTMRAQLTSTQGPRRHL

[3] = molecular target: Serine/threonine-protein kinase 24 (Homo sapiens) (UniProt Q9Y6E0); test: Selectivity interaction (KinomeScan (DiscoverX)) EUB0000655a STK24; settings: at 10 µM
[4] = molecular target: Dual specificity protein kinase CLK3 (Homo sapiens, UniProt P49761); test: Selectivity interaction (Kinase panel (DSF assay)) EUB0001559a CLK3
[5] = molecular target: Protein-tyrosine kinase 6 (Homo sapiens, UniProt Q13882); test: Selectivity interaction (KinomeScan (DiscoverX)) EUB0000666a PTK6; settings: at 10 µM
[6] = molecular target: Serine/threonine-protein kinase MRCK beta (Homo sapiens) (UniProt Q9Y5S2); settings: at 10 µM
[7] = molecular target: T2, Mitogen-activated protein kinase 15 (Homo sapiens) (UniProt Q8TD08); test: Selectivity interaction (LanthaScreen Eu Kinase Binding Assay) EUB0001632a MAPK15; settings: at 10 µM
T2 sequence (whole entry): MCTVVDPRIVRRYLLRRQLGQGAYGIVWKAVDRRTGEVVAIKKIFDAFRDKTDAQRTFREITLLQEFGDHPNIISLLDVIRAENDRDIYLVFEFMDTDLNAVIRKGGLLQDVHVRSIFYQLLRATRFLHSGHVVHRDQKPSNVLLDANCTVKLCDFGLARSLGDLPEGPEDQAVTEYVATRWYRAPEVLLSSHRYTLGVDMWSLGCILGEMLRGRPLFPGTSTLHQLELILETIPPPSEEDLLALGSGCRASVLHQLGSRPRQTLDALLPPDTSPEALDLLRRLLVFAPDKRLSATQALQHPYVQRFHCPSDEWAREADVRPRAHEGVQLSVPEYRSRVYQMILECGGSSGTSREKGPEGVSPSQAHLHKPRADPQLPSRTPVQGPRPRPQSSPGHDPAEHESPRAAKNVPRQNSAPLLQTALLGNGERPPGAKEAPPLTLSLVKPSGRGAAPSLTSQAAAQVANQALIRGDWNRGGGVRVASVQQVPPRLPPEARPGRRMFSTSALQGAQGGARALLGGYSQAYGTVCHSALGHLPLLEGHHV

[8] = molecular target: T3, Dual specificity mitogen-activated protein kinase kinase 4 (Homo sapiens) (UniProt P45985); test: Selectivity interaction (ActivX KiNativ screen (kinase selectivity in THP-1 cell lysates)) EUB0000639a MAP2K4; assay type: subcellular; settings: lysate, at 0.2 µM
T3 sequence (whole entry): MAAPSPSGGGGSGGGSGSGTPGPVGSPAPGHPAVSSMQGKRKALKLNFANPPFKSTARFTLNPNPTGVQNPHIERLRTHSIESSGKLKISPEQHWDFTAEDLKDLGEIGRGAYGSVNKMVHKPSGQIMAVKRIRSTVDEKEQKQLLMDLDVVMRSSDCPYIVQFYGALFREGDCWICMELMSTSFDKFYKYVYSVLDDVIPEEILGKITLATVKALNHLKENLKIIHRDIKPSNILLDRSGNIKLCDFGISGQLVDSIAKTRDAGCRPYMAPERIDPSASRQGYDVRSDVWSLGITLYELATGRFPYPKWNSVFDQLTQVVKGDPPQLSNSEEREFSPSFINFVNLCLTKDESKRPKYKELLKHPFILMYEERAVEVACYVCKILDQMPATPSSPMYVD

[9] = molecular target: Serine/threonine-protein kinase pim-2 (Homo sapiens, UniProt Q9P1W9); test: Selectivity interaction (KinomeScan (DiscoverX)) EUB0000618a PIM2; settings: at 10 µM
[10] = molecular target: eIF-2-alpha kinase GCN2 (Homo sapiens) (UniProt Q9P2K8); test: Selectivity interaction (ActivX KiNativ screen (ex vivo kinase selectivity in human PBMCs)) EUB0001619a EIF2AK4; assay type: cell-based; settings: PBMC, at 1 µM
eIF-2-alpha kinase GCN2 (Homo sapiens), sequence (Q9P2K8 whole entry): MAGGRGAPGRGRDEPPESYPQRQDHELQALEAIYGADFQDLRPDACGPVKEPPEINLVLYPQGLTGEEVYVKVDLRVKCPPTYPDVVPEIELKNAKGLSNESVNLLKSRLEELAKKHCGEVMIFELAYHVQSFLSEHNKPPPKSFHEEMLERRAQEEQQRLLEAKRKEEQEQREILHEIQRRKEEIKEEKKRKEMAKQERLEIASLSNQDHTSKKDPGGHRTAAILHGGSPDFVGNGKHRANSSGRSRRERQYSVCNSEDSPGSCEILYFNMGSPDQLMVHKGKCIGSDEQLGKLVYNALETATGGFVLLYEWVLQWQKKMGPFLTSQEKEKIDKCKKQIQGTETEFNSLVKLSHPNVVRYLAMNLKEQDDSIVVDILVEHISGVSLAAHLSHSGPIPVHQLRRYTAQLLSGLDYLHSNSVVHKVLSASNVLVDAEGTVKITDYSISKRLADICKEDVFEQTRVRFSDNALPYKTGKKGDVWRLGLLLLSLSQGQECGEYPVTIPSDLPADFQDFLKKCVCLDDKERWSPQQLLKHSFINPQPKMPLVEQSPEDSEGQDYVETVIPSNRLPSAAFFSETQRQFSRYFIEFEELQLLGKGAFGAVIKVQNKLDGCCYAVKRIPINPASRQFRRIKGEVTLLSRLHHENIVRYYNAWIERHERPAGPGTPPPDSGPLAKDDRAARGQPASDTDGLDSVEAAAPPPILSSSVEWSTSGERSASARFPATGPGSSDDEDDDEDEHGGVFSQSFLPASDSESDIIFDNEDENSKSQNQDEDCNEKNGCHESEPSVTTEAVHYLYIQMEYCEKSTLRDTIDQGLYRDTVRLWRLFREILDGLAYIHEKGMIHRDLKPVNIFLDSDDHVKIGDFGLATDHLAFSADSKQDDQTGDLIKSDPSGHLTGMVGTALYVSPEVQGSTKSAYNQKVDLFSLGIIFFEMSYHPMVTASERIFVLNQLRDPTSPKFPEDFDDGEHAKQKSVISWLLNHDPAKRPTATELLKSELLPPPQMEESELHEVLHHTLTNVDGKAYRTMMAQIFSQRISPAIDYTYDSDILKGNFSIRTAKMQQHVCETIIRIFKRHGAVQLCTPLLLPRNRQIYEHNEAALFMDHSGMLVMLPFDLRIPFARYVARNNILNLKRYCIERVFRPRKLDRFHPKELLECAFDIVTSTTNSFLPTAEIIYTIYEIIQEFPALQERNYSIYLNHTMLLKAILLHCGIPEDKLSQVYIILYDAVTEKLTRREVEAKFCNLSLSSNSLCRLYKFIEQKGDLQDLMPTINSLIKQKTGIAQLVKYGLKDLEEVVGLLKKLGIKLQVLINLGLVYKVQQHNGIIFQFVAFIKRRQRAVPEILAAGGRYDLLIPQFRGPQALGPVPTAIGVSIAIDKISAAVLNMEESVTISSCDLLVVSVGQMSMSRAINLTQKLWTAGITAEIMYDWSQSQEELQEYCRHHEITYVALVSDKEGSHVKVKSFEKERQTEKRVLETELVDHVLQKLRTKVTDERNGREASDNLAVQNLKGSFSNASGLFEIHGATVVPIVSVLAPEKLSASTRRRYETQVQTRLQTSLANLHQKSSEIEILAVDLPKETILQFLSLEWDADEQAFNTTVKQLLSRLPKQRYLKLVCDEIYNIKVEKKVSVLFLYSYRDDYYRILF

Insulin receptor, sequence (P06213 28-758 limits assumed): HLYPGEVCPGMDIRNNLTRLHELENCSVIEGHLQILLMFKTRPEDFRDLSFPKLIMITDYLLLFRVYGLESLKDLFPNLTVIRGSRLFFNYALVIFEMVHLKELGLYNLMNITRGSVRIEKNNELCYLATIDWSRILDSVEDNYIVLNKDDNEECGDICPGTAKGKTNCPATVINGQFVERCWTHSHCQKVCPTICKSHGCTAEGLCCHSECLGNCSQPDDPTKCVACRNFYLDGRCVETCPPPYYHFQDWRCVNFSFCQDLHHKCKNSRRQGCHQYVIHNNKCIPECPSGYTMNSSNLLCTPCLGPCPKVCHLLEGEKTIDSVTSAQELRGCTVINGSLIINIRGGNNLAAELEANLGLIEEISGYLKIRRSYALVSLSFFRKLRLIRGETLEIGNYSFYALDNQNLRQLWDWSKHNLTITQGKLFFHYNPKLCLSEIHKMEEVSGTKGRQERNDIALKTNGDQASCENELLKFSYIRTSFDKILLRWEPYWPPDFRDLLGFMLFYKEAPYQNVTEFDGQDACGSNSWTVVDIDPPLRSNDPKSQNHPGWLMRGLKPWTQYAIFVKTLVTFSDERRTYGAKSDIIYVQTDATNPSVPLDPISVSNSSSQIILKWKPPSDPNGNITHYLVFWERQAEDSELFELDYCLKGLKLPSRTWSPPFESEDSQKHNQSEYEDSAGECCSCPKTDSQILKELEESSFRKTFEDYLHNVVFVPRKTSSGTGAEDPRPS
Insulin receptor, sequence (P06213 763-1382 limits assumed): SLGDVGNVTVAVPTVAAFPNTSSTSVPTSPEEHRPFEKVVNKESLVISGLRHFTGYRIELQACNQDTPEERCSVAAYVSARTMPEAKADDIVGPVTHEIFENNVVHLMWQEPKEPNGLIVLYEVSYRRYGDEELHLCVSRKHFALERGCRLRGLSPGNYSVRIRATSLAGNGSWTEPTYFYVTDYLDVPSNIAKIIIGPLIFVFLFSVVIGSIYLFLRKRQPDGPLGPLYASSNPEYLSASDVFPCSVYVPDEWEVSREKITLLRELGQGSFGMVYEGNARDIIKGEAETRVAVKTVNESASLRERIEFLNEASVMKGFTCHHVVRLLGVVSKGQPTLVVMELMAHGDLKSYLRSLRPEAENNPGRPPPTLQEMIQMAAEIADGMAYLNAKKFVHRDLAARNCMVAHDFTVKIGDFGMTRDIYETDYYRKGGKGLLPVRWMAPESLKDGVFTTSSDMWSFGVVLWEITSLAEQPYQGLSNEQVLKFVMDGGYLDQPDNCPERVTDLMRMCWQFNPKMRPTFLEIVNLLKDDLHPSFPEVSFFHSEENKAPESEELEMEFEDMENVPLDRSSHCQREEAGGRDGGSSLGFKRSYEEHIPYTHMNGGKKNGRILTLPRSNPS
Protein-tyrosine kinase 6, sequence (Q13882 whole entry, looked up): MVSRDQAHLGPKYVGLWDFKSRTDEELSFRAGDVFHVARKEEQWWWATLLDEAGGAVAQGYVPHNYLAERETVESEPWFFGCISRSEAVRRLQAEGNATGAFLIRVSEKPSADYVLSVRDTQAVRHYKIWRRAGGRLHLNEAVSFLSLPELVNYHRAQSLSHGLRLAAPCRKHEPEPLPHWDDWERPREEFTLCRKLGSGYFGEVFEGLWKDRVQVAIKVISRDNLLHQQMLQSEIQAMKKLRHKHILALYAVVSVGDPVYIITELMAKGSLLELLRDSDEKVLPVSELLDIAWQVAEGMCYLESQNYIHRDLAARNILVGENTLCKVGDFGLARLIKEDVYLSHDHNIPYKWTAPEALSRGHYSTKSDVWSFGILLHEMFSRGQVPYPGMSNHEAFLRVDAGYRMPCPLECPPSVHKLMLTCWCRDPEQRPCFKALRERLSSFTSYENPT
Serine/threonine-protein kinase pim-2, sequence (Q9P1W9 whole entry, looked up): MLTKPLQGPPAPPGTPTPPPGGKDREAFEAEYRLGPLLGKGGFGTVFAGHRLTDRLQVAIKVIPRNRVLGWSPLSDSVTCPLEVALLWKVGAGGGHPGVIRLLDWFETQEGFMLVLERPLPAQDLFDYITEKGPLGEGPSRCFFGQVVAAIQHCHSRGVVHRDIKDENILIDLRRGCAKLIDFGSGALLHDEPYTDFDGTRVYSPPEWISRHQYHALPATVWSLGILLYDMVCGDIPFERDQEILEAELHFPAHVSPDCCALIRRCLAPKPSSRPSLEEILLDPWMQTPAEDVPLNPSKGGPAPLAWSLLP
Serine/threonine-protein kinase 24 (Homo sapiens), sequence (Q9Y6E0 whole entry, looked up): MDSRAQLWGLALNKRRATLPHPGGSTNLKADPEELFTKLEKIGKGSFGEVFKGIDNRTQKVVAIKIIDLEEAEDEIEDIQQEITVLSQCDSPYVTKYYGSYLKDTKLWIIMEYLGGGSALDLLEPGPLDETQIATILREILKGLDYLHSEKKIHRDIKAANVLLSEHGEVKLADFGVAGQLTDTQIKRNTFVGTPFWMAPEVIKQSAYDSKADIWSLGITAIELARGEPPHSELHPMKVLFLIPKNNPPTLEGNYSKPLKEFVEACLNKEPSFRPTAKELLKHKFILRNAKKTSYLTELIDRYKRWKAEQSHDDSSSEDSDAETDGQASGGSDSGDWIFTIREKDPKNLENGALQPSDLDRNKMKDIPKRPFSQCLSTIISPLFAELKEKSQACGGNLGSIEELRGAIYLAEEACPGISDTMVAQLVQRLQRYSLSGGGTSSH
Mitogen-activated protein kinase 10, sequence (P53779 whole entry): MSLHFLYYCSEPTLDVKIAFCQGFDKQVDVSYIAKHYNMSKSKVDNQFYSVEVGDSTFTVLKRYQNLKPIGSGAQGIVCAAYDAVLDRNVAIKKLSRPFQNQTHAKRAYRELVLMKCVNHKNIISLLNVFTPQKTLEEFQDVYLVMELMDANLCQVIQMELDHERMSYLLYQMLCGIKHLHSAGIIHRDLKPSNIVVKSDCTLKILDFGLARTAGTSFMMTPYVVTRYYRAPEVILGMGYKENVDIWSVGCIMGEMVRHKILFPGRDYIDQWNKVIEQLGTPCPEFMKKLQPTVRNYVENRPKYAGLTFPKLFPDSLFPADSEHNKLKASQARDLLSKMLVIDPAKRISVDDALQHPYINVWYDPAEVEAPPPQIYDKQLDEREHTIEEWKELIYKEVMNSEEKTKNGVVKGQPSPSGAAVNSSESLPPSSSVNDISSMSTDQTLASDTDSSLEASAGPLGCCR

## CCN(CC)CCCCNc1ncc2cc(-c3cc(OC)cc(OC)c3)c(NC(=O)NC(C)(C)C)nc2n1
[1]
  % of control: 100%

## COc1cc(N(C)c2ccnc3ccc(C(F)(F)F)cc23)cc(OC)c1OC
Insulin receptor
  % binding: 100%

## CCC(=O)N1CCN(c2ccc(-n3c(=O)ccc4cnc5ccc(-c6cnc7ccccc7c6)cc5c43)cc2C(F)(F)F)CC1
[2]
  % of control: 71%

## CN(C)CCOc1ccc(-c2nc(-c3ccncc3)c(-c3ccc4c(c3)CC/C4=N\O)[nH]2)cc1
[3]
  % of control: 100%

## CN(C(=O)c1cnn2cccnc12)c1cc2c(cc1N1CCOCC1)C(=O)N(C[C@@H](F)C(C)(C)O)C2
[4]
  dTM: 0 K

## O=C(NOC[C@H](O)CO)c1ccc(F)c(F)c1Nc1ccc(I)cc1F
[5]
  % of control: 46%

## Cc1cc([C@@H](C)Nc2ccccc2C(=O)O)c2nc(N3CCOCC3)cc(=O)n2c1 [AZD-6482]
[6]
  % of control: 100%

## Cn1cc(-n2cnc3c(NCc4nc5cc(Cl)c(Cl)cc5[nH]4)nc(N4CCOCC4)nc32)cn1
[7]
  % of inhibition: -42.8%

## CC[C@@H]1[C@H](F)C(=O)N[C@@H]1COc1nccc2cc(C(N)=O)c(OC)cc12 [ZIMLOVISERTIB]
[8]
  % of inhibition: 15.8%

## O[C@H]1CC[C@H](Nc2ncc3nc(Nc4c(F)cc(F)cc4F)n([C@H]4CCOC4)c3n2)CC1
[9]
  % of control: 100%

## N#Cc1cccc(-c2c[nH]c3ncnc(N4CCOCC4)c23)c1
[10]
  % of inhibition: 22%
